Data on four molecules can be found in patent publication US20250136652A1, “FUSION PROTEIN FOR TARGETING RECOMBINANT PROTEINS FOR DEGRADATION” (The Regents of the University of California, priority 2022, published 2025).

The test system of test [1] is STUD degradation of GFP (ubiquitin proteasome pathway). The test can be described thus: Inhibitor assay: rescue of GFP fluorescence in Jurkat T cells expressing SynZip STUD and GFP target. Format: cell-based. The settings on record: 5 hours; for GFP fluorescence rescue relative to DMSO vehicle control: cells express functional STUD and GFP target. How it is done: FIG. 3: STUD degradation of GFP is mediated by the cullins in UPP. Representative flow cytometry distributions of GFP fluorescence of Jurkat T cells expressing the SynZip STUD described in FIG. 2B treated with one of three drugs or a DMSO vehicle control. Distributions are representative of three independent experiments.
Using the 2 plasmid system as described above, we lentivirally transduce Jurkat T cells. 72 hours after removal of lentivirus, we treat these Jurkat T cells and an untransduced control cell line with either 5 μM of the proteasomal inhibitor MG-132, 1 μM of the cullin ring ligase inhibitor MLN4924, 100 nM of the lysosomal inhibitor Bafilomycin A1, or DMSO vehicle control and incubate at 37 C for 5 hours. […] FIG. 3.
Flow cytometry: All flow cytometry data was obtained using a LSR Fortessa (BD Biosciences). All assays were run in a 96-well round bottom plate (Fisher Scientific #08-772-2C). Samples were prepared by pelleting cells in the plate using centrifugation at 400×g for 4 minutes. Supernatant was then removed and 200 μL of PBS (UCSF Cell Culture facility) was used to wash cells. The cells were again pelleted as described above and supernatant was removed. Cells were resuspended in 120 μL of Flow buffer (PBS+2% FBS) and mixed by pipetting prior to flow cytometry assay.
Inhibitor Assays: 100,000 cells were plated in a 96 well round bottom plate with either 5 μM MG-132 (Sigma-Aldrich #M7449-200UL), 1 μM MLN4924 (Active Biochem #A-1139), 100 nM Bafilomycin A1 (Enzo Life Sciences #BML-CM110-0100), or DMSO vehicle control and incubated at 37 C for 5 hours. After incubation, cells were pelleted by centrifugation at 400×g for 4 minutes. Supernatant was then removed and cells were washed once with 200 μL PBS. Cells were pelleted again (400×g for 4 minutes) and resuspended in flow buffer (PBS+2% FBS) for assay by flow cytometry.

The next test relates to NALM6 target cells. The test can be described thus: MLN4924 dose response: ON switch CAR lysis of NALM6 target cells. Format: cell-based, human. The settings on record: MLN4924 1 μM to 0.015625 μM; 72 hours at 37 C; CD8+ T cells with antiCD19BBz CAR-SynZip and memSTUD. How it is done:
We engineer CD8+ primary human T cells that express an antiCD19BBz CAR fused to a SynZip and a STUD to recognizes the SynZip. As a control, the CD8+ primary human T cells that express the same CAR without the SynZip and the SynZip STUD were also engineered. Both these cell lines were cocultured and an untransduced (UnT) control with NALM6 target cells for 72 hours at 37 C in the presence of various concentrations of MLN4924. Lysis of target cells was calculated by each line relative to NALM6 cells cultured alone by flow cytometry.
CD8+ primary human T cells were engineered with an antiCD19BBz CAR fused to a SynZip and a memSTUD that binds the SynZip using the same plasmids outlined in FIG. 14A by lentiviral transduction. As a control, we also lentivirally transduce CD8+ primary human T cells with an antiCD19BBz and a SynZip memSTUD which cannot bind the CAR. These engineered cells and an untransduced control were cocultured with NALM6 target cells for 72 hours at 37 C in the presence of MLN4924 ranging from 1 μM to 0.015625 μM and a DMSO vehicle control. After coculture, target cell lysis was assayed by flow cytometry. Specific target cell lysis of each cell line relative to NALM6 cells cultured alone in the same conditions was then calculated.
Co-culture assays: For all assays, T cells and target cells were co-cultured at a 1:1 ratio with cell numbers varying per assay. […]

Test [2] has as its system STUD knockdown of anti-CD19 4-1BB CD3zeta CAR. The test can be described thus: MLN4924 rescue of STUD knockdown of CD19BBz CAR expression in CD8+ primary T cells. Format: cell-based, human. The settings on record: 1 μM MLN4924, 5 hours, 37 C. How it is done: FIG. 4D. Plasmid in FIG. 4A is transduced into CD8+ primary T cells and anti-CD19 4-1BB CD3zeta CAR expression and activation is assayed. Left: Cullin inhibitor MLN4924 is added to engineered T cells to rescue degradation of CAR by STUD. […] Black bars represent each condition with DMSO vehicle control. Middle: Engineered T cells are cocultured with NALM6 target cells for 72 hours and lysis is measured by flow cytometry. Lysis is calculated relative to lysis of NALM6 cells cultured with UnT T cells. Right: Median fluorescence of T cell activation marker CD25 after coculture is measured by antibody stain for CD25 and flow cytometry.
Engineered CD8+ T cells expressing were cocultured with NALM6 target cells and measured activation of the CAR by quantifying target cell lysis and expression of the T cell activation marker CD25.
Inhibitor Assays: 100,000 cells were plated in a 96 well round bottom plate with either 5 μM MG-132 (Sigma-Aldrich #M7449-200UL), 1 μM MLN4924 (Active Biochem #A-1139), 100 nM Bafilomycin A1 (Enzo Life Sciences #BML-CM110-0100), or DMSO vehicle control and incubated at 37 C for 5 hours. After incubation, cells were pelleted by centrifugation at 400×g for 4 minutes. Supernatant was then removed and cells were washed once with 200 μL PBS. Cells were pelleted again (400×g for 4 minutes) and resuspended in flow buffer (PBS+2% FBS) for assay by flow cytometry. […]

Test [3] concerns the target GFP fused to a heterodimeric SynZip protein complementary to the binding domain on the STUD. The test can be described thus: cell-based or functional assay.

Residues, ends and D or L forms follow the SMILES beside them. *: point of attachment. Cbz = O=C(OCc1ccccc1)*

Chain of GFP fused to a heterodimeric SynZip protein complementary to the binding domain on the STUD (chain, as listed by the source): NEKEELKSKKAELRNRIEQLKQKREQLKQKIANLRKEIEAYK

On to `NS(=O)(=O)OC[C@@H]1C[C@@H](n2ccc3c(N[C@H]4CCc5ccccc54)ncnc32)C[C@@H]1O` [MLN4924], for which, in test [1] (1 μM MLN4924, 37 C), the “GFP fluorescence rescue relative to DMSO vehicle control” value is “can indeed be rescued”. Moreover, the “specific target cell lysis by CAR” value in the test with NALM6 target cells is reported as “dose dependent”. For the same molecule, the “rescue of STUD knockdown of CAR expression” value in test [2] is reported as “can rescue STUD knockdown of CAR expression”.
As for `CO/C1=C\C(C)=C\[C@@H](C)[C@@H](O)[C@@H](C)C/C(C)=C/C=C/[C@H](OC)[C@@H]([C@@H](C)[C@@H](O)[C@H](C)[C@@]2(O)C[C@@H](O)[C@H](C)[C@@H](C(C)C)O2)OC1=O` [Bafilomycin A1], the “GFP fluorescence change relative to DMSO vehicle control” value in test [1] (100 nM Bafilomycin A1, 37 C) is recorded as “No changes to GFP fluorescence”.
With `CC(C)C[C@@H](C=O)NC(=O)[C@H](CC(C)C)NC(=O)[C@H](CC(C)C)NC(=O)OCc1ccccc1` [MG-132] (Cbz-Leu-Leu-Leu-aldehyde), in test [1] (5 μM MG-132, 37 C), the “GFP fluorescence rescue relative to DMSO vehicle control” value is listed as “can indeed be rescued”.

B1: synZIP STUD (Synthetic Targeter of Ubiquitination and Degradation) (designed binder)
chain: SIAATLENDLARLENENARLERDIANLERDLARLEREEAYFGSGSGSGSGSRRRG
Consider B1, for which the fold change of median normalized GFP fluorescence (GFP/tagBFP), flow cytometry, Jurkat T cells in test [3] is 42 fold.
